This is an account of results in patent US20090142846A1, “METHODS FOR MEASURING BIOCHEMICAL REACTIONS” (EKSIGENT TECHNOLOGIES, LLC, priority 2005, published 2009).

One assay deals with P. falciparum LDH (Plasmodium falciparum, UniProt Q27743). The assay is described as follows: Fluorescence-coupled LDH enzyme assay on microfluidics system with continuously variable concentration gradient. The format is biochemical. The text has this:
A fluorescence-coupled enzyme assay was developed using a microfluidics system described herein for creating a continuously variable concentration gradient to monitor the reduction of NAD^+ by the enzyme LDH to give a fluorescent end product. This system was then adapted to measure potency and determine mechanism of inhibition by various inhibitors of LDH.
One of the products of the reaction in the assay, NADH, is coupled to Thermus thermophilus NADH oxidase to generate H2O2, which in turn is coupled to horseraddish peroxidase which reacts with […] and amplex red (Molecular Probes, Inc., Eugene, Oreg., U.S.A.) to give the fluorescent product resorufin. […]
The novel data analysis techniques described herein for determining the mechanism of inhibition of an inhibitor (or mechanism of activation of an activator) are applied to the data produced from the microfluidics system. The titration of the enzyme with a continuous linear variation of inhibitor and substrate from zero to a pre-determined finite concentration yields a characteristic rate profile that is defined by the specific type of interaction of the inhibitor and enzyme with respect to the substrate. […]
The titration of LDH with a linear gradient of NAD^+ was performed on the microfluidics system described herein with the change in relative fluorescence intensity monitored under initial rate conditions. […]

In assay [1] the target is rabbit muscle lactate dehydrogenase (LDH) (Oryctolagus cuniculus, UniProt P13491). Briefly: Continuous variation method on a microtiter plate (step concentration gradients). The settings on record: limited data. Type of assay: biochemical. The text has this: Determination of the mechanism of inhibition by the inhibitor oxalate with respect to the substrate NAD^+ against the enzyme rabbit muscle lactate dehydrogenase (LDH) using a microtiter plate to generate individual step concentration gradients was attempted. FIG. 49 is a graph showing the results of the experiment. An attempt to determine the mechanism of inhibition by the inhibitor oxalate with respect to the substrate lactate against the enzyme rabbit muscle LDH using a microtiter plate to generate individual step concentration gradients was attempted. FIG. 50 is a graph showing the results of this experiment.

For a further assay, the system named is LDH. The settings on record: cited from earlier work.

Each structure is given as a SMILES string. Like-named read-outs stand apart in the source and are kept apart here.

Chain of P. falciparum LDH (Q27743 whole entry): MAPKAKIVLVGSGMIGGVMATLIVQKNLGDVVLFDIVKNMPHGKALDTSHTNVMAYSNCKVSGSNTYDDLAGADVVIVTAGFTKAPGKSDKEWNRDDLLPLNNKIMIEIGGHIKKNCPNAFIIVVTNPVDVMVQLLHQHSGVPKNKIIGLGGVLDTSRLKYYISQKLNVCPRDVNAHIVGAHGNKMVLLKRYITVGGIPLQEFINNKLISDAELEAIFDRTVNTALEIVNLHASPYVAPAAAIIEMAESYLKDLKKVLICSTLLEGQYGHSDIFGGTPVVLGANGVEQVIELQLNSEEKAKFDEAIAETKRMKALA

The Km is the concentration of substrate that gives half-maximal velocity. With `NC(=O)c1ccc[n+]([C@@H]2O[C@H](COP(=O)([O-])OP(=O)(O)OC[C@H]3O[C@@H](n4cnc5c(N)ncnc54)[C@H](O)[C@@H]3O)[C@@H](O)[C@H]2O)c1` [NAD^+], the Km on P. falciparum LDH (titration of LDH with linear gradient of NAD^+, initial rate conditions) was 54 ± 2 µM.
Turning to `O=C(O)C(=O)O` [oxalate], the mechanism of inhibition result in assay [1] (with respect to NAD^+, ambiguous) is on record as “uncompetitive inhibitor”; in assay [1] (with respect to lactate), “competitive inhibitor”; on P. falciparum LDH (with respect to substrate NAD^+), “uncompetitive inhibition”. The inhibition mechanism result is “uncompetitive” in the assay with LDH (with respect to NAD^+) and “competitive inhibitor” in the assay on LDH (with respect to lactate, reported previously).
